Measured values taken from PMC4894417, “Quantitative High-Throughput Profiling of Environmental Chemicals and Drugs that Modulate Farnesoid X Receptor” (Scientific Reports, 2014).
“Also recorded” adds a separate entry of the source. Read-outs that look alike come from different tables or passages of the source.

Assays:
human FXR [1] = molecular target: T1, human FXR (Homo sapiens, UniProt Q96RI1); assay: FXR-bla reporter gene assay, agonist mode (qHTS); conditions: for FXR agonist activity: FXR-bla assay; for FXR-bla, agonist EC50: Table 1, confirmed compounds, mean ± SD of 3 experiments
vitamin D receptor (VDR) = vitamin D receptor (VDR) (Homo sapiens, UniProt P11473); assay: VDR-bla reporter gene assay (agonist and antagonist modes)
[2] = molecular target: peroxisome proliferator-activated receptor gamma (PPARγ) (Homo sapiens, UniProt P37231); assay: PPARγ-bla reporter gene assay (agonist and antagonist modes)
human FXR [3] = molecular target: T1, human FXR; assay: FXR-bla reporter gene assay, antagonist mode (CDCA-induced transactivation); conditions: for FXR antagonist activity: FXR-bla assay; for FXR-bla, antagonist Efficacy: Table 1, inhibition as percent of positive control (guggulsterone), 50 μM CDCA
[4] = test system: FXR-UAS-bla HEK293T cells; assay: Cell viability assay (CellTiter Glo) in the same well as FXR-bla; conditions: for Cell viability IC50: Table 1, mean ± SD of 3 experiments
[5] = molecular target: estrogen receptor alpha (ERα) (Homo sapiens, UniProt P03372); assay: ERα-bla reporter gene assay (agonist and antagonist modes)
[6] = Cell viability assay (CellTiter Glo) in the same well as FXR-bla; conditions: human, FXR-UAS-bla HEK293T cells
[7] = molecular target: peroxisome proliferator-activated receptor delta (PPARδ) (Homo sapiens, UniProt Q03181); assay: PPARδ-bla reporter gene assay (agonist and antagonist modes)
androgen receptor (AR) = androgen receptor (AR) (Homo sapiens, UniProt P10275); assay: AR-bla reporter gene assay (agonist and antagonist modes)
FXR-LBD [8] = molecular target: T2, FXR-LBD (Homo sapiens, UniProt Q96RI1); assay: FXR TR-FRET coactivator recruitment assay, agonist mode; type: biochemical; conditions: Table 1; coactivator SRC2-2 recruitment
T2 construct: The glutathione S-transferase (GST)-tagged FXR-LBD protein; purchased Life Technologies
T2 sequence (Q96RI1 262-486 limits assumed): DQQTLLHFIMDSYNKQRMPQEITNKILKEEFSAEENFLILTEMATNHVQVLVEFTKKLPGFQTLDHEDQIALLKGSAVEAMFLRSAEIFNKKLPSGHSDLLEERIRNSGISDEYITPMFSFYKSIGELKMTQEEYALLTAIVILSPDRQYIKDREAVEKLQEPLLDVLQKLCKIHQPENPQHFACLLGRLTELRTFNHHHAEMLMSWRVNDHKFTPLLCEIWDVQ

FXR-LBD [9] = molecular target: T2, FXR-LBD; assay: FXR TR-FRET coactivator recruitment assay, antagonist mode (50 μM CDCA); type: biochemical
[10] = test system: FXR-UAS-bla HEK293T cells
[11] = Table S1, primary screening, 50 µM CDCA
[12] = Table S1, primary screening, CDCA 100%
[13] = Table 1, in the presence of 50 μM CDCA

T1 sequence (Q96RI1 with tags, fused parts or gaps limits assumed): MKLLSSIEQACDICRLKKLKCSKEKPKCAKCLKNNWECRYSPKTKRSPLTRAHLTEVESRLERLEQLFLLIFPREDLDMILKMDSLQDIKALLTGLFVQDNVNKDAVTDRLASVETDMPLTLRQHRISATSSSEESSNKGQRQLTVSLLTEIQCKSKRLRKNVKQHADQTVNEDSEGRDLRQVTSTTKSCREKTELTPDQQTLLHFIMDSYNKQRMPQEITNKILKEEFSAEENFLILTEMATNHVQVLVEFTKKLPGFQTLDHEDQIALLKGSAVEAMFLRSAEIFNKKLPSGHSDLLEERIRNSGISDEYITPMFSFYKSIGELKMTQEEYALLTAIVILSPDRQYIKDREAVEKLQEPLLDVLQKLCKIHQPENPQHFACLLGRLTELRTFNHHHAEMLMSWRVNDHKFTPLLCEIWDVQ
androgen receptor (AR), sequence (P10275 with tags, fused parts or gaps limits assumed): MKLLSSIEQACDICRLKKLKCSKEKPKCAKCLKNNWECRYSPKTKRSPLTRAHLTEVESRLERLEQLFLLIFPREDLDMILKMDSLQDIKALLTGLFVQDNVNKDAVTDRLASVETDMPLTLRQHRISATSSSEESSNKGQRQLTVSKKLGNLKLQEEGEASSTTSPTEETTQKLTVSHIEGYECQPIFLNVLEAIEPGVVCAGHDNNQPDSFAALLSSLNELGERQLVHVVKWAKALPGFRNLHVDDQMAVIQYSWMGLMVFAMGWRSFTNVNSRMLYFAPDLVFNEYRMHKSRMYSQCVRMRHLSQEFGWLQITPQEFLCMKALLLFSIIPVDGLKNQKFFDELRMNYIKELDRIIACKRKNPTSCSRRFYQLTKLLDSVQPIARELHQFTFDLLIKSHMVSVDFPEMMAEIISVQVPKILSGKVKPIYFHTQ
vitamin D receptor (VDR), sequence (P11473 with tags, fused parts or gaps limits assumed): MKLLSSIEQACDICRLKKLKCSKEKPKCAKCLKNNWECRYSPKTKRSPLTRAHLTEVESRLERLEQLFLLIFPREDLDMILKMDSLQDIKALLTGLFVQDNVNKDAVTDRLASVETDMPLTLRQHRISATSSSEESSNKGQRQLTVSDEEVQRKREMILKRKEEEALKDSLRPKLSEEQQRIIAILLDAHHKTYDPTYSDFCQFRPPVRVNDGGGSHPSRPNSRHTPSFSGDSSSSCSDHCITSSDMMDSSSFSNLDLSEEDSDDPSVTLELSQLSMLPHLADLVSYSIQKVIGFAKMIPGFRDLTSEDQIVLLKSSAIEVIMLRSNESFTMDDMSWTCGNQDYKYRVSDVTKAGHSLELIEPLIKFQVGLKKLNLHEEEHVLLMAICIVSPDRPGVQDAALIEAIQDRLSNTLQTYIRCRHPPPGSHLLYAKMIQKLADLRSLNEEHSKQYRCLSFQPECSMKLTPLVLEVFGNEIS
peroxisome proliferator-activated receptor gamma (PPARγ), sequence (P37231 with tags, fused parts or gaps limits assumed): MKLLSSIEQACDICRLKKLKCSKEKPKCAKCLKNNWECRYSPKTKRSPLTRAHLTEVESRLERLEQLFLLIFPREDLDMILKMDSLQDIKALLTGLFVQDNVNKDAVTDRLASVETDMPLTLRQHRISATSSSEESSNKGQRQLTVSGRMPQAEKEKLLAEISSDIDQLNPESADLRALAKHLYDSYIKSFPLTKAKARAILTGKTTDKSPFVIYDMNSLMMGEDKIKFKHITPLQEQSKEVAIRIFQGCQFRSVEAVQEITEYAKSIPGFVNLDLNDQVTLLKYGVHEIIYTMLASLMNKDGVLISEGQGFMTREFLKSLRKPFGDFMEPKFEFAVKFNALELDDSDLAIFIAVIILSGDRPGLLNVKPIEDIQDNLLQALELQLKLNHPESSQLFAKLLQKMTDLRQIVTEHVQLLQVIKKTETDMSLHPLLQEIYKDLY
estrogen receptor alpha (ERα), sequence (P03372 with tags, fused parts or gaps limits assumed): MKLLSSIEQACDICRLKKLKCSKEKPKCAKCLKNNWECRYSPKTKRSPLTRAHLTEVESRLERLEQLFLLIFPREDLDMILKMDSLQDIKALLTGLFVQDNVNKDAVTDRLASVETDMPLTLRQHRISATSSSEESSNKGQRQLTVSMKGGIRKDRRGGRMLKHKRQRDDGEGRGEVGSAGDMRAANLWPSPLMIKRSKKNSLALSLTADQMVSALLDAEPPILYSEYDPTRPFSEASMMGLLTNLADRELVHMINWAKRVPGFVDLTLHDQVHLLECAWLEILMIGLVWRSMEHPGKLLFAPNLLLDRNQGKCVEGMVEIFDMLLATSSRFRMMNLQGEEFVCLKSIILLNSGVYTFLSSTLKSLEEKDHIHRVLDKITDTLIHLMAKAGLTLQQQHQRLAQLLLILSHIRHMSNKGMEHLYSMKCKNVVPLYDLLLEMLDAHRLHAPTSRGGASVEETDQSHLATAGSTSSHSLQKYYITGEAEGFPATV
peroxisome proliferator-activated receptor delta (PPARδ), sequence (Q03181 with tags, fused parts or gaps limits assumed): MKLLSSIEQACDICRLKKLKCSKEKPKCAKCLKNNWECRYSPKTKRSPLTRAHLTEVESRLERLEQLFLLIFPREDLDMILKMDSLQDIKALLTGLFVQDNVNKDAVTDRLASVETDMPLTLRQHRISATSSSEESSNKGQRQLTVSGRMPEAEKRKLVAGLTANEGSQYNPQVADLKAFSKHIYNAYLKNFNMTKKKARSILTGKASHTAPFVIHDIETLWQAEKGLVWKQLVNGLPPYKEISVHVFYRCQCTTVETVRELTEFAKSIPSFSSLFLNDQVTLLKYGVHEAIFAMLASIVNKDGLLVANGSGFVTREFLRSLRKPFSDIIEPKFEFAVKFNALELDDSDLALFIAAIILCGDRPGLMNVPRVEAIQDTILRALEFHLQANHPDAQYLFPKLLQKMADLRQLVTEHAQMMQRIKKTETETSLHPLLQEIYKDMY

COC1=CC(=O)C[C@@H](C)[C@]12Oc1c(Cl)c(OC)cc(OC)c1C2=O [Griseofulvin]
FXR agonist mode EC50 (human FXR [1]; Table S1, primary screening): Inactive | VDR activity (vitamin D receptor (VDR)): inhibiting β-lactamase expression | PPARγ activity [2]: inhibiting β-lactamase expression | IC50 (human FXR [3]): 42.3 ± 17.3 µM | FXR antagonist activity (human FXR [3]; CDCA-induced): antagonistic effects; also recorded: inhibiting β-lactamase expression | FXR antagonist mode Efficacy (human FXR [3]; [11]): 42 ± 7% | Cytotoxicity IC50 ([4]; Table S1, primary screening): Inactive | ERα activity [5]: antagonized

C[C@H](CCC(=O)O)[C@H]1CC[C@H]2[C@@H]3CC[C@@H]4C[C@H](O)CC[C@]4(C)[C@H]3CC[C@]12C [LCA, lithocholic acid]
FXR agonist activity (human FXR [1]): selectively induced transactivation of FXR | FXR agonist mode Efficacy (human FXR [1]; [12]): 20 ± 7% | FXR antagonist mode Efficacy (human FXR [3]; [11]): 75 ± 40% | IC50 at 16 h [6]: 43.8 ± 4.18 µM | Cytotoxicity Efficacy ([4]; Table S1, primary screening): 65 ± 22%

COC(=O)C1=C(C)NC(COC(N)=O)=C(C(=O)OC(C)C)C1c1cccc(Cl)c1Cl (centres unmarked) [Lemildipine]
PPARδ activity [7]: activated | AR activity (androgen receptor (AR)): activated | ERα activity [5]: activated

COC(=O)C1=C(C)NC(C)=C(C(=O)OCCN2CCN(C(c3ccccc3)c3ccccc3)CC2)C1c1cccc([N+](=O)[O-])c1 (centres unmarked) [Manidipine]
EC50 (human FXR [1]): 6.92 ± 4 µM | FXR agonist activity (human FXR [1]): weak FXR agonist activity | FXR agonist mode Efficacy (human FXR [1]; [12]): 13 ± 1% | IC50 (human FXR [3]): 19.2 ± 10.4 µM | FXR antagonist mode Efficacy (human FXR [3]; [11]): 57 ± 35% | IC50 at 16 h [6]: 18.2 ± 15.1 µM | Cytotoxicity Efficacy ([4]; Table S1, primary screening): 49 ± 17%

COC(=O)Nc1nc2ccc(C(=O)c3ccccc3)cc2[nH]1 [Mebendazole]
FXR TR-FRET, agonist EC50 (FXR-LBD [8]): Inactive | FXR-bla, agonist EC50 (human FXR [1]): Inactive | VDR activity (vitamin D receptor (VDR)): inhibiting β-lactamase expression | PPARγ activity [2]: inhibiting β-lactamase expression | FXR TR-FRET, antagonist IC50 (FXR-LBD [9]; [13]): Inactive | AR activity (androgen receptor (AR)): inhibiting β-lactamase expression | IC50 (human FXR [3]): 2.19 ± 1.51 µM | FXR antagonist activity (human FXR [3]; CDCA-induced): inhibiting β-lactamase expression | FXR-bla, antagonist Efficacy (human FXR [3]): 70 ± 9% | FXR antagonist Efficacy (human FXR [3]; Table S3, 50 µM CDCA): 66 ± 12% | Cell viability IC50 [4]: Inactive

COC(=O)C1=C(C)NC(C)=C(C(=O)OCCN(C)Cc2ccccc2)C1c1cccc([N+](=O)[O-])c1 (centres unmarked) [Nicardipine]
EC50 (human FXR [1]): 3.64 ± 0.84 µM | FXR agonist activity (human FXR [1]): weak FXR agonist activity | FXR agonist mode Efficacy (human FXR [1]; [12]): 33 ± 7% | FXR agonist Efficacy (human FXR [1]; Table S3): 33 ± 7% | IC50 (human FXR [3]): 16.7 ± 5.67 µM | FXR antagonist mode Efficacy (human FXR [3]; [11]): 116 ± 10% | FXR antagonist Efficacy (human FXR [3]; Table S3, 50 µM CDCA): 116 ± 10% | EC50 at 16 h [6]: 31.9 ± 15.8 µM | IC50 at 16 h [6]: 31.9 ± 15.8 µM | Cytotoxicity Efficacy ([4]; Table S1, primary screening): 125 ± 27% | Cytotoxicity Efficacy ([4]; Table S3): 125 ± 27%

COC(=O)Nc1nc2ccc(C(=O)c3cccs3)cc2[nH]1 [Nocodazole]
FXR TR-FRET, agonist EC50 (FXR-LBD [8]): Inactive | FXR-bla, agonist EC50 (human FXR [1]): Inactive | VDR activity (vitamin D receptor (VDR)): inhibiting β-lactamase expression | PPARγ activity [2]: inhibiting β-lactamase expression | FXR TR-FRET, antagonist IC50 (FXR-LBD [9]): Inactive | FXR antagonist Efficacy (human FXR [3]): 54 ± 2% | FXR antagonist activity (human FXR [3]; CDCA-induced): inhibiting β-lactamase expression | IC50 (human FXR [3]; FXR-bla, antagonist IC50): 0.29 µM | IC50 (human FXR [3]; IC50, FXR-bla antagonist mode, primary screening, CDCA-induced): 0.32 µM | Cell viability IC50 [4]: Inactive

COc1cc([C@@H]2c3cc4c(cc3[C@H](O)[C@H]3COC(=O)[C@H]23)OCO4)cc(OC)c1OC [Podofilox]
VDR activity (vitamin D receptor (VDR)): inhibiting β-lactamase expression | PPARγ activity [2]: inhibiting β-lactamase expression | AR activity (androgen receptor (AR)): inhibiting β-lactamase expression

CO[C@H]1C[C@H](O[C@@H]2/C(C)=C/C[C@@H]3C[C@@H](C[C@]4(CC[C@H](C)[C@@H](C5CCCCC5)O4)O3)OC(=O)[C@@H]3C=C(C)/C(=N/O)[C@H]4OC/C(=C\C=C\[C@@H]2C)[C@]43O)O[C@@H](C)[C@@H]1O [Selamectin]
FXR agonist Efficacy (human FXR [1]): 68 ± 5% | FXR agonist mode Efficacy (human FXR [1]): 68 ± 5% | EC50 (human FXR [1]; FXR agonist mode EC50): 5.98 ± 0.39 µM | FXR antagonist Efficacy (human FXR [3]): 45 ± 6% | FXR antagonist mode Efficacy (human FXR [3]): 45 ± 6% | IC50 (human FXR [3]; FXR antagonist mode IC50): 2.48 ± 0.82 µM | Cytotoxicity IC50 [10]: Inactive

CCc1c(C(=O)NN2CCCCC2)nn(-c2ccc(Cl)cc2Cl)c1-c1ccc(Br)cc1 [Surinabant]
FXR TR-FRET, agonist EC50 (FXR-LBD [8]): Inactive | FXR-bla, agonist EC50 (human FXR [1]): Inactive | FXR TR-FRET, antagonist Efficacy (FXR-LBD [9]; [13]): 73 ± 1% | IC50 (human FXR [3]): 1.84 ± 0.77 µM | FXR-bla, antagonist Efficacy (human FXR [3]): 86 ± 25% | FXR antagonist Efficacy (human FXR [3]; Table S3, 50 µM CDCA): 96 ± 16% | EC50 at 16 h [6]: 34.1 ± 13.5 µM | IC50 ([4]; Homo sapiens, HEK-293T, read-out: Cell viability IC50): 17.1 ± 1.12 µM | Cytotoxicity Efficacy ([4]; Table S3): 66 ± 17%

Eprinomectin B1a
FXR agonist mode Efficacy (human FXR [1]; [12]): 41 ± 1% | FXR agonist Efficacy (human FXR [1]; Table S3): 41 ± 1% | EC50 (human FXR [1]; read-out: FXR agonist mode EC50, Table S1, primary screening): 5.33 ± 0.35 µM | FXR antagonist mode Efficacy (human FXR [3]; [11]): 110 ± 6% | FXR antagonist Efficacy (human FXR [3]; Table S3, 50 µM CDCA): 110 ± 6% | IC50 (human FXR [3]; read-out: FXR antagonist mode IC50, Table S1, primary screening, 50 µM CDCA): 14.5 ± 0.98 µM | Cytotoxicity Efficacy [10]: 108 ± 4% | EC50 [10]: 14 ± 1.6 µM | IC50 [10]: 14 ± 1.6 µM
